In patent US11896678B2, “Compositions and methods for treatment of peroxisome proliferator-activated receptor gamma (PPARG) activated cancer” (THE BROAD INSTITUTE, INC., priority 2017, dated 2024):

Legend:
[1] = tested on: PPARG-activated bladder cancer cell lines; assay: Proliferation assays in PPARG-activated bladder cancer cell lines; assay type: cell-based, human; conditions: 100 nM-500 nM
Method: A panel of bladder cancer cell lines with PPARG modulators in colony formation assays was then tested (FIG. 10), kinetic proliferation assays (IncuCyte Zoom; Essen Bioscience) using cell lines treated with a single concentration of compound (100 nM-500 nM), and end-point dose-response assays (CellTiter Glo or CyQuant).
This assay was expanded to include an additional 8 representative bladder cancer cell lines, including cell lines with PPARG amplification, RXRA p.S427F mutation, activated gene signature, and control cell lines with low level expression of PPARG and target genes. […] Representative data for the UM-UC-9 cell line are shown in FIG. 6B, and is tabulated for the tested bladder cancer cell lines in Table 1. […] This significant (P<0.01) preferential sensitivity to PPARG inverse-agonists, but not antagonists, is maintained across all of the PPARG-activated cell lines in the panel, including the RXRA p.S427F cell line, HT-1197 (41), the PPARG-amplified cell lines, 5637 and UM-UC-9, and the PPARG activation gene signature cell lines Cal29, UM-UC-1, and RT112/84 (FIG. 12). […] Similar results were obtained with these cell lines in parallel studies using clonogenic assays to quantify colony-forming ability (FIG. 10).
(§1) Proliferation Assays: To enable cell-counting experiments, cell lines were transduced with a lentiviral vector encoding nuclear-targeted GFP, TagGFP2-H2B (Evrogen), and stable pools generated following selection for puromycin resistance. Cell lines were maintained for at least 7 days following selection prior to expansion and seeding into 96- or 384-well plates for further analysis. For kinetic proliferation assays, 96-well plates (n 1% 4 per condition) were imaged and counted every two hours using IncuCyte Zoom (Essen BioScience). Media and compounds were replaced approximately every 3-4 days. For endpoint assays to measure dose-response, cells were plated in 384-well plates, dosed with compound, and upon reaching approximately 70% to 90% confluence in control wells, cells were either counted using fluorescence imaging (Incu-Cyte Zoom) or incubated with CyQuant (Thermo Fisher) at the indicated time and plates were read with a fluorescent plate reader.

UM-UC-9 cells = assay: Direct cell counting dose-response proliferation assay; assay type: cell-based, human
Method: To determine whether PPARG modulators affect the proliferation and/or viability of PPARG-activated bladder cancer cell lines, a direct cell counting-based assay was performed. This assay likely avoids potential artifacts associated with the use of an ATP content-based assay, given that PPAR modulators are known to regulate cellular metabolic activity. […] These IC50 values align well with the calculated IC50s from both the cell-based reporter gene assay (FIG. 8A) and the biochemical corepressor assay (FIG. 8D).
as §1

O=C(Nc1ccccc1)c1cc([N+](=O)[O-])ccc1Cl [GW9662]
sensitivity of cell lines [1]: not sensitive | effect on cell proliferation compared with DMSO control (UM-UC-9 cells): no significant effects
